According to patent US9856273B2, “ETP derivatives” (priority 2012, dated 2018):

Columns and labels:
[1] = test system: MOLM-13 AML cells; test: MTS cell viability assay; type: cell-based
Experimental: IC50 Determinations for Ovarian, Liver, Pancreatic, CML, AML Cancer Cell Lines (See e.g. FIGS. 4, 6A-6C, 21, 22A, 22B, 23, 24A-24C, 25A, 25B and 34): MTS assays were performed for cell viability. SKOV3 ovarian cancer, Huh-7 hepatocellular carcinoma, MIA-PaCa2 pancreatic cancer, KCL-22 CML, T315I mutant KCL-22 CML, MOLM-13 AML and MV4-11 AML cells were seeded in 96-well plates (5000 cells/well for solid tumors, 10000 cells/well for blood tumors), incubated overnight at 37° C. in 5% CO2, and exposed to racemic ETP69 or S enantiomer in a dose-dependent manner for 48 h. Dimethyl sulfoxide (DMSO) was used as the vehicle control. Viable cell numbers were determined by tetrazolium conversion to its formazan dye and absorbance was measured at 490 nm using an automated ELISA plate reader. Each experiment was performed in quadruplicate.

[2] = test system: MV4-11 AML SQ xenografts; type: in vivo, mouse; details: MV4-11 xenograft, 5 mg/kg or 10 mg/kg orally once daily for 20 days
Experimental: Human MV4-11 acute myeloid leukemia (AML) cancer cells (5×10^6) that have FLT-ITD mutations were resuspended in serum-free RPMI1640 medium and Matrigel (ration of 1:1) and subcutaneously injected into the flank of 5-6 weeks old female NOD/SCID/IL-2rg(ko)(NSG). When palpable tumor sizes reached at approximately 50 mm^3, mice were divided into three groups (vehicle=9, 5 mg/kg dose group=8, 10 dose mg/kg group=8). Then, S enantiomer was orally administered at 5 mg/kg or 10 mg/kg with vehicle (10% DMSO+30% Solutol+60% saline), once daily for 20 days. Tumor volumes were calculated by the formula 1/2a×b^2, where a is the long diameter, and b is the short diameter. Tumor volumes correlate with tumor weights. The statistical significance of group differences was analyzed using a Student's t-test with the two-tailed distribution. P values less than 0.05 were considered statistically significant.

| SMILES | increase in inhibitory capacity when compared to the (R) enantiomer [1] | toxicity symptoms [2] |
| --- | --- | --- |
| CN1C(=O)[C@@]23C[C@](C)(C#N)[C@H](c4ccc5c(c4)OCO5)N2C(=O)[C@]1(C)SS3 [(S) enantiomer of ETP69, (3S,6S,7S,8aS)-6-(benzo[d][1,3]dioxol-5-yl)-2,3,7-trimethyl-1,4-dioxohexahydro-6H-3,8a-epidithiopyrrolo[1,2-a]pyrazine-7-carbonitrile] | ~4 fold | – |
| CN1C(=O)[C@@]23C[C@](C)(C#N)[C@H](c4ccc5c(c4)OCO5)N2C(=O)[C@]1(C)SS3 (single isomer, unassigned) [ETP417] | – | no observable toxicity symptoms |
